# Laboratory results: patent publication US8198456B2, “Dihydropyridine derivatives as useful as protein kinase inhibitors” (Bayer Intellectual Property GmbH, priority 2006, dated 2012)
# Where a name gives a salt, the structure may show the parent alone.
# Target: T1, recombinant human c-MET kinase enzyme domain (Homo sapiens, UniProt P08581)
# T1 construct: Recombinant c-Met kinase domain (amino acids 960-1390); His (N); made in house; host or cells: baculovirus expression system (insect cells; SF21 is named only for the alternative format)
# T1 sequence (P08581 960-1390): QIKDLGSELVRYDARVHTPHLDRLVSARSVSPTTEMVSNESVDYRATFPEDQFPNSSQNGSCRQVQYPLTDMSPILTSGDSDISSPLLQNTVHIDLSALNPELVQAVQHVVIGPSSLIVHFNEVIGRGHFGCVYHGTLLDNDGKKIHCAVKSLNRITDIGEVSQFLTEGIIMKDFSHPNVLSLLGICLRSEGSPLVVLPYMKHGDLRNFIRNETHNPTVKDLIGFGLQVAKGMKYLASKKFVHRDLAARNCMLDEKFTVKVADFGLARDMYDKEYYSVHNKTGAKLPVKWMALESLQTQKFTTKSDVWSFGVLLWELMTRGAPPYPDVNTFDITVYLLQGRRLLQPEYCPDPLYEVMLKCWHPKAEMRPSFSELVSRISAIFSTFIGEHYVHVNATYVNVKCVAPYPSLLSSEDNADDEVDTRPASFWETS
# Test: c-MET receptor tyrosine kinase Homogeneous Time Resolved Fluorescence assay (HTRF)
# Assay type: biochemical
# Conditions: Biological Example 1 and/or Biological Example 2
# From the text: Recombinant c-Met kinase domain (amino acids 960-1390) was produced in a baculovirus expression vector as an N-terminal His-tagged fusion protein and purified on a NiNTA column. The resulting purified enzyme was then used in the following c-Met Homogeneous Time Resolved Fluorescence assay (HTRF) to find compounds of the invention and to perform initial activity determinations. Specifically, this assay measures the ability of compounds of the invention to inhibit the phosphorylation of a randomly synthesized, biotinylated heterocopolymeric polypeptide composed of glutamic acid and tyrosine, with an average length of 100 aa. The assay analyzes the amount of phosphorylated polypeptide produced.
# The enzymatic phosphorylation of the biotinylated heterocopolymeric polypeptide was performed in a black 384-well plate at ambient temperature in a reaction mixture containing 50 mM HEPES (pH 7.4), 5 mM MgCl2, 5 mM MnCl2, 0.01% Tween-20, and 2 mM DTT, […] recombinant human c-MET kinase enzyme domain, 37 nM biotinylated heterocopolymeric polypeptide composed of glutamic acid and tyrosine, 20 μM ATP, 1% DMSO in the absence or presence of a compound of the invention. The reaction was stopped after a 20-minute incubation by the addition of 80 mM EDTA.
# The formation of phosphorylated heterocopolymeric, biotinylated polypeptide was quantified with the HTRF assay technology using an anti-phosphotyrosine antibody, PT66, conjugated to europium cryptate, mixed with a streptavidin-XL665 conjugate. Reduced or inhibited phosphorylation of the heterocopolymeric, biotinylated polypeptide prevents the anti-phosphotyrosine antibody from binding to the peptide, resulting in a loss of energy transfer to the streptavidin-XL665 conjugate.
# Following the 384-well enzymatic phosphorylation reaction outlined above, the detection of phosphorylated heterocopolymeric, biotinylated polypeptide was performed by dilution of the stopped reaction mixture 2-fold with 50 mM HEPES (pH 7.0), 500 mM KF, 0.1% BSA, streptavidin-XL665 (20 nM), and anti-phosphotyrosine antibody PT66-crypate conjugate (6.4 ng/well) and incubation for four hours at ambient temperature. Plates were read in an Envision plate reader (PerkinElmer Life and Analytical Sciences, Inc., MA) simultaneously at 620 nm and 665 nm to obtain signal ratios of 665 nm/620 nm. Results of energy transfer were expressed as signal ratios of 665 nm/620 nm. Negative controls were samples without recombinant c-MET or c-MET treated with 100 mM EDTA.
# For determination of IC50 values of particular compounds of the invention, eight serially diluted compound concentrations (at 1:3.16 dilution) were used in the assay. Controls without a compound of the invention or with a reference compound were run in parallel in the same assay plate.
row,SMILES,IC50
1,"CC1=C(C#N)C(c2cccc(C(=O)Nc3ccc(CN(C)C)cn3)c2)C(C#N)=C(C)N1 [compound 76, 3-(3,5-dicyano-1,4-dihydro-2,6-dimethyl-4-pyridinyl)-N-[5-[(dimethylamino)methyl]-2-pyridinyl]-benzamide]",100 to 500 nM
2,"CC1=C(C#N)C(c2cccc(C(=O)Nc3ccc(C)cn3)c2)C(C#N)=C(C)N1 [compound 51, 3-(3,5-dicyano-1,4-dihydro-2,6-dimethyl-4-pyridinyl)-N-(5-methyl-2-pyridinyl)-benzamide]",100 to 500 nM
3,"CC1=C(C#N)C(c2ccc3[nH]nc(-c4ccon4)c3c2)C(C#N)=C(C)N1 [compound 175, 1,4-dihydro-4-[3-(3-isoxazolyl)-1H-indazol-5-yl]-2,6-dimethyl-3,5-pyridinedicarbonitrile]",< 100 nM
4,"CO/N=C/c1n[nH]c2ccc(C3C(C#N)=C(C)NC(C)=C3C#N)cc12 [compound 159, 1,4-dihydro-4-[3-[(E)-(methoxyimino)methyl]-1H-indazol-5-yl]-2,6-dimethyl-3,5-pyridinedicarbonitrile]",< 100 nM
5,"CC1=C(C#N)C(c2ccc3[nH]nc(-c4cnn(C)c4)c3c2)C(C#N)=C(C)N1 [compound 174, 1,4-dihydro-2,6-dimethyl-4-[3-(1-methyl-1H-pyrazol-4-yl)-1H-indazol-5-yl]-3,5-pyridinedicarbonitrile]",< 100 nM
6,"CNC(=O)c1cccc(C2C(C#N)=C(C)NC(c3ccc(N)cc3)=C2C#N)c1 (stereo not shown) [compound 238, 3-[2-(4-aminophenyl)-3,5-dicyano-1,4-dihydro-6-methyl-4-pyridinyl]-N-methyl-benzamide]",500 to 2500 nM
7,"CC1=C(C#N)C(c2ccc3[nH]nc(-c4cccnc4)c3c2)C(C#N)=C(C)N1 [compound 87, 1,4-dihydro-2,6-dimethyl-4-[3-(3-pyridinyl)-1H-indazol-5-yl]-3,5-pyridinedicarbonitrile]",< 100 nM
8,"CNC(=O)c1cccc(C2C(C#N)=C(C)NC(c3ccccc3)=C2C#N)c1 (stereo not shown) [compound 240, 3-(3,5-dicyano-1,4-dihydro-2-methyl-6-phenyl-4-pyridinyl)-N-methyl-benzamide]",500 to 2500 nM
9,"CC1=C(C#N)C(c2ccc3[nH]ncc3c2)C(C#N)=C(c2ccc(C(=O)NCCN3CCOCC3)cc2)N1 (stereo not shown) [compound 261, 4-[3,5-dicyano-1,4-dihydro-4-(1H-indazol-5-yl)-6-methyl-2-pyridinyl]-N-[2-(4-morpholinyl)ethyl]-benzamide]",< 100 nM
10,"COC(=O)c1cccc(C2C(C#N)=C(C)NC(C)=C2C#N)c1 [compound 10, 3-(3,5-dicyano-1,4-dihydro-2,6-dimethyl-4-pyridinyl)-benzoic acid, methyl ester]",100 to 500 nM
11,"CNC(=O)c1cccc(C2C(C#N)=C(C)NC(C)=C2C#N)c1 [compound 12, 3-(3,5-dicyano-2,6-dimethyl-1,4-dihydro-pyridin-4-yl)-N-methyl-benzamide, TFA salt]",500 to 2500 nM
12,"CNC(=O)Nc1n[nH]c2ccc(C3C(C#N)=C(C)NC(C)=C3C#N)cc12 [compound 147, N-[5-(3,5-dicyano-1,4-dihydro-2,6-dimethyl-4-pyridinyl)-1H-indazol-3-yl]-N′-methyl-urea]",< 100 nM
13,CC1=C(C#N)C(c2ccc3[nH]ncc3c2)C(C#N)=C(c2ccc(NCCN(C)C)nc2)N1 (stereo not shown) [compound 275],< 100 nM
14,"COC(=O)c1n[nH]c2ccc(C3C(C#N)=C(C)NC(C)=C3C#N)cc12 [compound 85, 5-(3,5-dicyano-1,4-dihydro-2,6-dimethyl-4-pyridinyl)-1H-indazole-3-carboxylic acid methyl ester]",500 to 2500 nM
15,"CC1=C(C#N)C(c2ccc3[nH]nc(N)c3c2)C(C#N)=C(C)N1Cc1ccccc1 [compound 293, 4-(3-amino-1H-indazol-5-yl)-1,4-dihydro-2,6-dimethyl-1-(phenylmethyl)-3,5-pyridinedicarbonitrile]",< 100 nM
16,"CC(=O)Nc1n[nH]c2ccc(C3C(C#N)=C(C)NC(C)=C3C#N)cc12 [compound 89, N-[5-(3,5-dicyano-1,4-dihydro-2,6-dimethyl-4-pyridinyl)-1H-indazol-3-yl]-acetamide]",< 100 nM

row,SMILES,IC50
1,"CC1=C(C#N)C(c2cccc(C(=O)Nc3ccccn3)n2)C(C#N)=C(C)N1 [compound 192, 3′,5′-dicyano-1′,4′-dihydro-2′,6′-dimethyl-N-2-pyridinyl-[2,4′-bipyridine]-6-carboxamide]",< 100 nM
2,"CC1=C(C#N)C(c2ccc3[nH]nc(I)c3c2)C(C#N)=C(C)N1 [compound 93, 1,4-dihydro-4-(3-iodo-1H-indazol-5-yl)-2,6-dimethyl-3,5-pyridinedicarbonitrile]",< 100 nM
3,"CC1=C(C#N)C(c2cccc(C(=O)NCCc3ccncc3)c2)C(C#N)=C(C)N1 [compound 23, 3-(3,5-dicyano-1,4-dihydro-2,6-dimethyl-4-pyridinyl)-N-[2-(4-pyridinyl)ethyl]-benzamide]",500 to 2500 nM
4,"COC(=O)c1ccc(CNc2n[nH]c3ccc(C4C(C#N)=C(C)NC(C)=C4C#N)cc23)cc1 [compound 135, 4-[[[5-(3,5-dicyano-1,4-dihydro-2,6-dimethyl-4-pyridinyl)-1H-indazol-3-yl]-amino]methyl]-benzoic acid methyl ester]",< 100 nM
5,"COC(=O)c1cccc(C2C(C#N)=C(C)NC(c3ccccc3)=C2C#N)c1 (stereo not shown) [compound 219, 3-(3,5-dicyano-1,4-dihydro-2-methyl-6-phenyl-4-pyridinyl)-benzoic acid, methyl ester]",< 100 nM
6,"CC1=C(C#N)C(c2cccc(C(=O)Nc3cccc(N)n3)c2)C(C#N)=C(C)N1 [compound 68, N-(6-amino-2-pyridinyl)-3-(3,5-dicyano-1,4-dihydro-2,6-dimethyl-4-pyridinyl)-benzamide]",100 to 500 nM
7,"CC1=C(C#N)C(c2ccc3[nH]nc(-c4ccc(N5CCN(C(=O)OC(C)(C)C)CC5)cc4)c3c2)C(C#N)=C(C)N1 [compound 155, 4-[4-[5-(3,5-dicyano-1,4-dihydro-2,6-dimethyl-4-pyridinyl)-1H-indazol-3-yl]-phenyl]-1-piperazinecarboxylic acid 1,1-dimethylethyl ester]",< 100 nM
8,"CC1=C(C#N)C(c2ccc3[nH]nc(N)c3c2)C(C#N)=C(c2ccoc2C)N1 (stereo not shown) [compound 282, 4-(3-amino-1H-indazol-5-yl)-1,4-dihydro-2-methyl-6-(2-methyl-3-furanyl)-3,5-pyridinedicarbonitrile]",< 100 nM
9,"CC1=C(C#N)C(c2ccc3[nH]ncc3c2)C(C#N)=C(c2ccnc(Cl)c2)N1 (stereo not shown) [compound 276, 2′-chloro-1,4-dihydro-4-(1H-indazol-5-yl)-6-methyl-[2,4′-bipyridine]-3,5-dicarbonitrile]",< 100 nM
10,"COC(c1cccnc1)n1nc(N)c2cc(C3C(C#N)=C(C)NC(C)=C3C#N)ccc21 (stereo not shown) [compound 110, 4-[3-amino-1-(methoxy-3-pyridinylmethyl)-1H-indazol-5-yl]-1,4-dihydro-2,6-dimethyl-3,5-pyridinedicarbonitrile]",100 to 500 nM
11,"COC(=O)Nc1ccc(-c2n[nH]c3ccc(C4C(C#N)=C(C)NC(C)=C4C#N)cc23)cc1 [compound 123, [4-[5-(3,5-dicyano-1,4-dihydro-2,6-dimethyl-4-pyridinyl)-1H-indazol-3-yl]-phenyl]-carbamic acid methyl ester]",500 to 2500 nM
12,"CC1=C(C#N)C(c2ccc3[nH]nc(NCCN4CCCC4)c3c2)C(C#N)=C(C)N1 [compound 309, 1,4-dihydro-2,6-dimethyl-4-[3-[[2-(1-pyrrolidinyl)ethyl]amino]-1H-indazol-5-yl]-3,5-pyridinedicarbonitrile]",< 100 nM
13,"CC1=C(C#N)C(c2ccc3[nH]nc(NCCN)c3c2)C(C#N)=C(C)N1 [compound 308, 4-[3-[(2-aminoethyl)amino]-1H-indazol-5-yl]-1,4-dihydro-2,6-dimethyl-3,5-pyridinedicarbonitrile]",< 100 nM
14,"CC1=C(C#N)C(c2ccc3[nH]ncc3c2)C(C#N)=C(c2ccc(N(C)CCO)nc2)N1 (stereo not shown) [compound 273, 1,4-dihydro-6′-[(2-hydroxyethyl)methylamino]-4-(1H-indazol-5-yl)-6-methyl-[2,3′-bipyridine]-3,5-dicarbonitrile]",< 100 nM
15,"CC1=C(C#N)C(c2cccc(C(N)=O)c2)C(C#N)=C(C)N1 [compound 17, 3-(3,5-dicyano-1,4-dihydro-2,6-dimethyl-4-pyridinyl)-benzamide]",500 to 2500 nM
